Test results taken from patent US7531329B2, “Carbonyl reductase, gene thereof and method of using the same” (Kaneka Corporation, priority 2002, dated 2009).

test system: reductase RDR; test: Substrate specificity of the reductase RDR (NADH oxidation, decrease in absorbance at 340 nm); assay type: biochemical, Devosia riboflavina IFO 13584; settings: substrate 1 mM, NADH 0.25 mM, 100 mM phosphate buffer pH 6.5, 0.33% (v/v) dimethyl sulfoxide, 30° C.

Point of comparison: `CCCC=O` [n-butylaldehyde], “% activity (relative value, activity to N-benzyl-3-pyrrolidinone taken as 100%)” value 728%. Against it:
- CCC(=O)Cc1ccccc1 [1-phenyl-2-butanone] — lower, 147%
- CC(=O)c1ccccn1 [2-acetylpyridine] — lower, 13%
- CC(=O)c1ccc[nH]1 [2-acetylpyrrole] — lower, 70%
- CCC(C)=O [2-butanone] — lower, 280%
- O=C(CCl)c1cccc(Cl)c1 [2-chloro-1-(3′-chlorophenyl)ethanone] — lower, 463%
- CCCCCC(C)=O [2-heptanone] — higher, 2777%
- CCCCC(C)=O [2-hexanone] — higher, 5043%
- O=C(CO)c1ccccc1 [2-hydroxyacetophenone] — lower, 30%
- CCC(=O)C(=O)O [2-keto-n-butyric acid] — lower, 15%
- CC(C=O)c1ccccc1 (stereo not drawn) [2-phenylpropionaldehyde] — lower, 706%
- O=Cc1ccccn1 [2-pyridinecarbaldehyde] — lower, 82%
- O=C1CCc2ccccc2C1 [2-tetoralone] — higher, 1721%
- COc1ccc(C(C)=O)cc1OC [3,4-dimethoxyacetophenone] — higher, 2073%
- CC(=O)c1cccnc1 [3-acetylpyridine] — higher, 788%
- O=CCCc1ccccc1 [3-phenylpropionaldehyde] — lower, 685%
- CC(=O)c1ccncc1 [4-acetylpyridine] — higher, 6448%
- CC(=O)c1ccc(F)cc1 [4-fluoroacetophenone] — lower, 366%
- CC(=O)CCO [4-hydroxy-2-butanone] — lower, 33%
- CC(=O)CC(C)C [4-methyl-2-pentanone] — higher, 962%
- COc1cc2c(cc1OC)CC(=O)CC2 [6,7-dimethoxy-2-tetoralone] — higher, 2267%
- COc1ccc2c(c1)CCC(=O)C2 [6-methoxy-2-tetoralone] — lower, 156%
- COc1ccc2c(c1)CC(=O)CC2 [7-methoxy-2-tetoralone] — higher, 7084%
- O=C1CCN(Cc2ccccc2)C1 [N-benzyl-3-pyrrolidinone] — lower, 100%
- CC(C)=O [acetone] — lower, 194%
- CC(=O)c1ccccc1 [acetophenone] — lower, 181%
- CC(=O)CC(C)=O [acetylacetone] — higher, 1354%
- O=Cc1ccccc1 [benzaldehyde] — lower, 21%
- O=C(c1ccccc1)C(O)c1ccccc1 (stereo not drawn) [benzoin] — lower, 13%
- CC(=O)CC(=O)OCc1ccccc1 [benzyl acetoacetate] — higher, 2015%
- CC(=O)CCc1ccccc1 [benzylacetone] — lower, 410%
- O=C1CCCC1 [cyclopentanone] — lower, 103%
- CC(=O)C1CC1 [cyclopropyl methyl ketone] — lower, 20%
- CC(=O)C(C)=O [diacetyl] — higher, 1614%
- CCC(=O)CC [diethyl ketone] — lower, 32%
- CC1(C)COC(=O)C1=O [dihydro-4,4-dimethyl-2,3-furandione] — higher, 1314%
- CCOC(=O)C(Cl)C(=O)c1ccccc1 (stereo not drawn) [ethyl 2-chloro-3-oxo-3-phenyloropionate] — lower, 52%
- CCOC(=O)C(Cl)C(C)=O (stereo not drawn) [ethyl 2-chloroacetoacetate] — higher, 8907%
- C=CC(C(C)=O)C(=O)OCC (stereo not drawn) [ethyl 2-eteneacetoacetate] — lower, 429%
- CCOC(=O)C(C)C(C)=O (stereo not drawn) [ethyl 2-methylacetoacetate] — lower, 239%
- CCCCCCCCC(=O)C(=O)OCC [ethyl 2-oxodecanoate] — lower, 18%
- CCOC(=O)C1CCC(=O)C1 (stereo not drawn) [ethyl 3-oxocyclopentane carboxylate] — lower, 87%
- CCOC(=O)CC(=O)COC(C)=O [ethyl 4-acetoxyacetoacetate] — higher, 4234%
- CCOC(=O)CC(=O)CN=[N+]=[N-] [ethyl 4-azideacetoacetate] — higher, 804%
- CCOC(=O)CC(=O)COCc1ccccc1 [ethyl 4-benzyloxyacetoacetate] — higher, 3186%
- CCOC(=O)CC(=O)CBr [ethyl 4-bromoacetoacetate] — higher, 4099%
- CCOC(=O)CC(=O)CCl [ethyl 4-chloroacetoacetate] — lower, 683%
- CCOC(=O)CC(=O)CO [ethyl 4-hydroxyacetoacetate] — higher, 1774%
- CCOC(=O)CC(C)=O [ethyl acetoacetate] — higher, 4236%
- CCOC(=O)CC(=O)c1ccccc1 [ethyl benzoylacetate] — lower, 98%
- CCOC(=O)C(C)=O [ethyl pyruvate] — higher, 6232%
- O=CCCCC=O [glutaraldehyde] — higher, 1339%
- CC(=O)CO [hydroxyacetone] — lower, 100%
- CC(=O)CCC(=O)O [levulinic acid] — lower, 11%
- O=Cc1cccc(Cl)c1 [m-chlorobenzaldehyde] — lower, 301%
- CC(=O)c1cccc(O)c1 [m-hydroxyacetophenone] — lower, 61%
- CC(=O)c1cccc([N+](=O)[O-])c1 [m-nitroacetophenone] — higher, 6927%
- O=Cc1cccc([N+](=O)[O-])c1 [m-nitrobenzaldehyde] — lower, 683%
- COC(=O)CC(C)=O [methyl acetoacetate] — higher, 8341%
- CC(=O)C=O [methyl glyoxal] — lower, 345%
- COC(=O)C(C)=O [methyl pyruvate] — higher, 1889%
- CCCCCC=O [n-hexylaldehyde] — higher, 2225%
- CCCCCCCCOC(=O)CC(=O)CCl [n-octyl 4-chloroacetoacetate] — lower, 224%
- O=Cc1ccccc1Cl [o-chlorobenzaldehyde] — lower, 9%
- O=Cc1ccccc1[N+](=O)[O-] [o-nitrobenzaldehyde] — lower, 33%
- O=C(O)CC(=O)C(=O)O [oxalacetic acid] — lower, 14%
- CC(=O)c1ccc(Cl)cc1 [p-chloroacetophenone] — higher, 2354%
- O=Cc1ccc(Cl)cc1 [p-chlorobenzaldehyde] — lower, 117%
- CC(=O)c1ccc(C)cc1 [p-methylacetophenone] — lower, 521%
- O=Cc1ccc([N+](=O)[O-])cc1 [p-nitrobenzaldehyde] — higher, 1296%
- CCC=O [propionaldehyde] — lower, 204%
- CCC(=O)c1ccccc1 [propiophenone] — lower, 27%
- O=Cc1ccncc1 [pyridine-4-aldehyde] — lower, 441%
- CC(=O)CC(=O)OC(C)(C)C [tert-butyl acetoacetate] — higher, 5634%

test system: not listed separately; test: Determination of enzyme properties of purified RDR; assay type: biochemical; settings: N-benzyl-3-pyrrolidinone 5 mM, coenzyme 0.25 mM, pH 6.5, 30° C.
Description: RDR obtained in Example 1 was investigated as to its enzymatic properties. Fundamentally, the enzyme activity was measured by adding the substrate N-benzyl-3-pyrrolidinone (5 mM), the coenzyme […] (0.25 mM) and the enzyme to 100 mM phosphate buffer (pH 6.5), allowing the reaction to proceed at 30° C. for 1 minute, and then measuring the decrease in absorbance at a wavelength of 340 nm.
In the presence of NADH as a coenzyme, the enzyme acted on N-benzyl-3-pyrrolidinone to form (R)-N-benzyl-3-pyrrolidinol with an optical purity of 99.9% ee or more. The enzyme activity measured with NADPH as a coenzyme by the above method was about 0.6% of the activity obtained by using NADH as a coenzyme.
Enzyme activity measurements were carried out by the same enzyme activity measurement method as mentioned above except that the pH was varied in the range of 4.0 to 8.0 using, as the buffer, 100 mM phosphate buffer and 100 mM acetate buffer.
Enzyme activity measurements were carried out by the same enzyme activity measurement method as mentioned above except that the temperature was varied from 20° C. to 60° C.

With “RDR: purified enzyme from Devosia riboflavina IFO 13584 stereoselectively reducing N-benzyl-3-pyrrolidinone to (R)-N-benzyl-3-pyrrolidinol” the “enzyme activity with NADPH as a coenzyme relative to the activity with NADH as a coenzyme” value was “about 0.6%”.
